Reference: publication PMC6732734 (Heliyon, 2019)

Experiment: In vivo gentamicin release / pharmacokinetics after tail vein injection
Set-up: species or system Wistar rats
Details: rat

AUC(0-inf) (male, Wistar, plasma, iv, 2 mg): 203 µg·h/mL
Cmax (male, Wistar, plasma, iv, 2 mg): 8400 ng/mL
Tmax (male, Wistar, plasma, iv, 2 mg): 1 h
Vd (male, Wistar, plasma, iv, 2 mg): 0.1 L/kg
clearance (male, Wistar, plasma, iv, 2 mg): 5 mL/h/kg
time up to which gentamicin was detectable in the plasma (intravenous): up to 6 h
SMILES: CNC(C)C1CCC(N)C(OC2C(N)CC(N)C(OC3OCC(C)(O)C(NC)C3O)C2O)O1 (stereo not drawn) [Pure drug, Gentamicin]
